Laboratory results from ChEMBL document CHEMBL1157949, “Kalanchosine dimalate, an anti-inflammatory salt from Kalanchoe brasiliensis” (J Nat Prod, 2006).
The source made the active and inactive calls. The rule behind the calls is not given here.

Tested on: Mus musculus
Experiment: Antiinflammatory activity against zymosan-induced inflammation in mouse assessed as impairment of increase in popliteal lymph node weight at 240 mg/kg, ip administered daily 2 days before zymosan challenge measured after 5 days
Assay type: functional, organism-based
Parameters: dose 240 mg/kg

NC(CC(=O)O)C(O)C(O)C(N)CC(=O)O (stereo unspecified)
Activity: Active
